# Data reported in patent publication US11680060B2, “Bicycloheptane pyrrolidine orexin receptor agonists” (Merck Sharp & Dohme LLC, priority 2020, dated 2023).
# pIC50: −log10 of the molar value. Where two headings read alike, the source gives them in different places.
# Target: human OX2R (Homo sapiens (Human), UniProt O43614)
# Assay: IPOne (IP-1) assay in CHO cells expressing human OX2R
# Format: cell-based
# Conditions: for Emax: CHO; for pIC50: CHO cells expressing human OX2R, IP-One detection, 2 hours incubation, EC50 = inflection point of four parameter logistic fit, read-out: hOX2R_IP_IC50
# Outline: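 CHO cells stably expressing human OX2R were stimulated with compound (10-point ½-log dilutions) for 2 h at 37 °C. IP-1 accumulation was read by HTRF (IP-One, 665/620 nm). EC50 from a four-parameter fit; % effect relative to 1 μM reference agonist control.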
# [1] = percentage of mean max effect of a reference compound at 1 uM (100% activity by comparison to Orexin A), human OX2R, read-out: Emax (%)
# [2] = percentage of mean max effect of a reference compound at 1 uM (100% activity by comparison to Orexin A), human OX2R
# Chain of human OX2R (O43614 whole entry): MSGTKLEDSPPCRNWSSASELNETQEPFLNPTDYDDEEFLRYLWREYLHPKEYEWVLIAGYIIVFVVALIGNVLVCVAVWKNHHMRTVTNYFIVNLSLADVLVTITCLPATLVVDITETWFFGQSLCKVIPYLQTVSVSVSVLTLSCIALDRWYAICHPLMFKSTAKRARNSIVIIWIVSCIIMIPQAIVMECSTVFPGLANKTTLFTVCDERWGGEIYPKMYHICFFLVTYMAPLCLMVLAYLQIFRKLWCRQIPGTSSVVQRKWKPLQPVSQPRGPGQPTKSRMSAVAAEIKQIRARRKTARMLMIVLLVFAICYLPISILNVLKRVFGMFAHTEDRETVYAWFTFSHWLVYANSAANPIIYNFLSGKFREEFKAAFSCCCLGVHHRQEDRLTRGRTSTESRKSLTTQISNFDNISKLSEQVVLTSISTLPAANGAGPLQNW
Emax [1] [%],Structure (SMILES),also measured
101,"COC(=O)N1[C@H](C)C[C@H](NS(=O)(=O)N(C)C)[C@@H]1COC1CCC2(c3ncccn3)CC2C1 (stereo partly drawn) [Example 6, methyl (2R,3S,5R)-3-((N,N-dimethylsulfamoyl)amino)-5-methyl-2-(((6-(pyrimidin-2-yl)bicyclo[4.1.0]heptan-3-yl)oxy)methyl)pyrrolidine-1-carboxylate]",–
90.7,"COC(=O)N1[C@H](C)C[C@H](NS(C)(=O)=O)[C@@H]1COC1CCC2(c3ncc(F)c(C(F)F)n3)CC2C1 (stereo partly drawn) [Example 73, methyl (2R,3S,5R)-2-(((6-(4-(difluoromethyl)-5-fluoropyrimidin-2-yl)bicyclo[4.1.0]heptan-3-yl)oxy)methyl)-5-methyl-3-(methylsulfonamido)pyrrolidine-1-carboxylate]",–
101,"CCS(=O)(=O)N[C@H]1[C@H]2CCC[C@H]2N(C(=O)OC)[C@H]1COC1CCC2(c3ncc(F)cn3)CC2C1 (stereo partly drawn) [Example 129, methyl (2R,3S,3aS,6aR)-3-(ethylsulfonamido)-2-(((6-(5-fluoropyrimidin-2-yl)bicyclo[4.1.0]heptan-3-yl)oxy)methyl)hexahydrocyclopenta[b]pyrrole-1(2H)-carboxylate]",–
105,"CC(C)OC(=O)N1[C@H](C)C[C@H](NS(=O)(=O)C(F)F)[C@@H]1COC1CCC2(c3ncc(F)cn3)CC2C1 (stereo partly drawn) [Example 109, isopropyl (2R,3S,5R)-3-((difluoromethyl)sulfonamido)-2-(((6-(5-fluoropyrimidin-2-yl)bicyclo[4.1.0]heptan-3-yl)oxy)methyl)-5-methylpyrrolidine-1-carboxylate]",–
99.5,"CC(C)OC(=O)N1[C@H](C)C[C@H](NS(=O)(=O)N(C)C)[C@@H]1CO[C@@H]1CC[C@]2(c3ncccn3)C[C@@H]2C1 [Example 170, isopropyl (2R,3S,5R)-3-((N,N-dimethylsulfamoyl)amino)-5-methyl-2-((((1R,3R,6S)-6-(pyrimidin-2-yl)bicyclo[4.1.0]heptan-3-yl)oxy)methyl)pyrrolidine-1-carboxylate]",–
101,"CC(C)OC(=O)N1[C@H](C)C[C@H](NS(=O)(=O)CF)[C@@H]1CO[C@H]1CC[C@@]2(c3ncc(Cl)cn3)C[C@H]2C1 (single isomer, unassigned) [Example 95]",pIC50: 8.74
101,"COC(=O)N1[C@H](C)C[C@H](NS(C)(=O)=O)[C@@H]1CO[C@@H]1CC[C@]2(c3ncc(F)cn3)C[C@@H]2C1 [Example 136, methyl (2R,3S,5R)-2-((((1R,3R,6S)-6-(5-fluoropyrimidin-2-yl)bicyclo[4.1.0]heptan-3-yl)oxy)methyl)-5-methyl-3-(methylsulfonamido)pyrrolidine-1-carboxylate]",–
–,"COC(=O)N1[C@H](C)C[C@H](NS(C)(=O)=O)[C@@H]1CO[C@@H]1CC[C@]2(c3ncccn3)C[C@@H]2C1 (single isomer, unassigned) [Example 20]",Emax (%) [2]: 99.7%
–,"COC(=O)N1[C@H](C)C[C@H](NS(C)(=O)=O)[C@@H]1COC1CCC2(c3ncccn3)CC2C1 (single isomer, unassigned) [Example 16]",pIC50: 7.79; Emax (%) [2]: 102.2%
100,"CC(C)OC(=O)N1[C@H](C)C[C@H](NS(=O)(=O)CF)[C@@H]1CO[C@H]1CC[C@@]2(c3ncc(F)cn3)C[C@H]2C1 (single isomer, unassigned) [Example 100]",pIC50: 9.00
101,"COC(=O)N1[C@H](C)C[C@H](NS(=O)(=O)C(F)F)[C@@H]1CO[C@H]1CC[C@@]2(c3ncc(Cl)cn3)C[C@H]2C1 [Example 78, methyl (2R,3S,5R)-2-((((1S,3S,6R)-6-(5-chloropyrimidin-2-yl)bicyclo[4.1.0]heptan-3-yl)oxy)methyl)-3-((difluoromethyl)sulfonamido)-5-methylpyrrolidine-1-carboxylate]",–
100,"CC(C)OC(=O)N1[C@H](C)C[C@H](NS(=O)(=O)N(C)C)[C@@H]1COC1CCC2(c3ncc(F)cn3)CC2C1 (stereo partly drawn) [Example 164, isopropyl (2R,3S,5R)-3-((N,N-dimethylsulfamoyl)amino)-2-(((6-(5-fluoropyrimidin-2-yl)bicyclo[4.1.0]heptan-3-yl)oxy)methyl)-5-methylpyrrolidine-1-carboxylate]",–
–,"COC(=O)N1[C@H](C)C[C@H](NS(C)(=O)=O)[C@@H]1COC1CCC2(c3ncc(Cl)c(OC)n3)CC2C1 (stereo partly drawn) [Example 70, methyl (2R,3S,5R)-2-(((6-(5-chloro-4-methoxypyrimidin-2-yl)bicyclo[4.1.0]heptan-3-yl)oxy)methyl)-5-methyl-3-(methylsulfonamido)pyrrolidine-1-carboxylate]",Emax: 101%; pIC50: 7.47
101,"COC(=O)N1[C@@H]2CCC[C@@H]2[C@H](NS(=O)(=O)CF)[C@@H]1COC1CCC2(c3ncc(F)cn3)CC2C1 (stereo partly drawn) [Example 130, methyl (2R,3S,3aS,6aR)-3-((fluoromethyl)sulfonamido)-2-(((6-(5-fluoropyrimidin-2-yl)bicyclo[4.1.0]heptan-3-yl)oxy)methyl)hexahydrocyclopenta[b]pyrrole-1(2H)-carboxylate]",–
–,CC(C)OC(=O)N1[C@H](C)C[C@H](NS(=O)(=O)C(F)F)[C@@H]1COC1CC[C@]2(c3ncc(F)cn3)CC2C1 (stereo partly shown) [Example 110],Emax (%) [2]: 100.9%
104,"CCC(OC(=O)N1[C@H](C)C[C@H](NS(C)(=O)=O)[C@@H]1CO[C@H]1CC[C@@]2(c3ncc(F)cn3)C[C@H]2C1)C(F)F (stereo partly drawn) [Example 50, 1,1-difluorobutan-2-yl (2R,3S,5R)-2-((((1S,3S,6R)-6-(5-fluoropyrimidin-2-yl)bicyclo[4.1.0]heptan-3-yl)oxy)methyl)-5-methyl-3-(methylsulfonamido)pyrrolidine-1-carboxylate]",–
104,"C[C@@H]1C[C@H](NS(C)(=O)=O)[C@H](CO[C@H]2CC[C@@]3(c4ncc(F)cn4)C[C@H]3C2)N1C(=O)OCC1(F)CC1 [Example 61, (1-fluorocyclopropyl)methyl (2R,3S,5R)-2-((((1S,3S,6R)-6-(5-fluoropyrimidin-2-yl)bicyclo[4.1.0]heptan-3-yl)oxy)methyl)-5-methyl-3-(methylsulfonamido)pyrrolidine-1-carboxylate]",–
99.6,"COC(=O)N1[C@H](C)C[C@H](NS(C)(=O)=O)[C@@H]1COC1CCC2(c3ccccc3)CC2C1 (single isomer, unassigned) [Example 1]",pIC50: 7.69
101,"CC(C)OC(=O)N1[C@H](C)C[C@H](NS(=O)(=O)N(C)C)[C@@H]1CO[C@H]1CC[C@@]2(c3ncccn3)C[C@H]2C1 [Example 171, isopropyl (2R,3S,5R)-3-((N,N-dimethylsulfamoyl)amino)-5-methyl-2-((((1S,3S,6R)-6-(pyrimidin-2-yl)bicyclo[4.1.0]heptan-3-yl)oxy)methyl)pyrrolidine-1-carboxylate]",–
103,"COC(=O)N1[C@H](C)C[C@H](NS(=O)(=O)CC(F)(F)F)[C@@H]1CO[C@H]1CC[C@@]2(c3ncc(F)cn3)C[C@H]2C1 [Example 32, methyl (2R,3S,5R)-2-((((1S,3S,6R)-6-(5-fluoropyrimidin-2-yl)bicyclo[4.1.0]heptan-3-yl)oxy)methyl)-5-methyl-3-((2,2,2-trifluoroethyl)sulfonamido)pyrrolidine-1-carboxylate]",–
